Data from patent US10017520B2, “Myc modulators and uses thereof” (Massachusetts Institute of Technology, priority 2014, dated 2018).
≈ marks a conversion by molar mass, not a printed value. Read-outs that look alike come from different tables or passages of the source.

What was measured:
cancer cell lines = experiment: Cell viability in cancer cell lines (CELL TITER GLO; CTD cancer cell line profiling); type: cell-based
Procedure: (§1) FIGS. 2A to 2E show exemplary results of cell viability assay of compound 1. […] Results were expressed as a mean+/−SEM (n=3). RLU: Relative Luminescence Units.
FIGS. 3A to 3B show CTD^2 viability data profile of cancer cell lines treated with compound 1. FIG. 3A: dose response curves of 789 cell lines treated with compound 1 for 72 hours. FIG. 3B: relative percent composition of cell lineages and enrichment analysis after treatment with compound 1.
(§2) The effect of compound 1 on cell viability in several cancer cell lines were determined. The cancer cell lines employed in the assay included those corresponding to hematopoietic and solid tumors. Exemplary results are shown in FIGS. 2A to 2E, where viability was assessed by CELL TITER GLO assay (Promega). Compound 1 was also submitted in a blinded fashion to the National Cancer Institute's CTD cancer cell line profiling pipeline, which enabled sensitivity profiling in about 800 cancer cell lines with annotation of specific genomic lesions that impart on human cancers (FIGS. 3A to 3B). […] The effects of other compounds described herein on cell viability in several cancer cell lines were also determined, and exemplary results are shown in Table 2, where viability was assessed by CELL TITER GLO assay (Promega).

NCIH1975 cells = experiment: Cell viability, CELL TITER GLO assay (Promega), NCIH1975 cells; type: cell-based; conditions: Homo sapiens, NCI-H1975
Procedure: as §1, §2

[1] = Aqueous solubility at 37° C.; type: physicochemical
c-Myc [2] = experiment: c-Myc reporter gene assay (Qiagen) in HEK293T cells; type: cell-based; conditions: Homo sapiens, HEK-293T, 16 h, treatment 16 hours, Firefly/Renilla ratio
Procedure: Compound 1's activity against Myc was measured as a Firefly/Renilla ratio, using the Myc reporter assay (Qiagen) in HEK293T cells after treatment with compound 1 for 16 hours. Results are expressed as a mean+/−SD (n=3). SD: standard deviation.
Select compounds described herein that were SMM assay positives were evaluated in several versions of a c-Myc reporter gene assay, including a commercial assay from Qiagen. The compounds' activities against c-Myc were measured as a Firefly/Renilla ratio, using the Myc reporter assay (Qiagen) in HEK293T cells after treatment with the compounds for 16 hours.

Namalwa cells = experiment: Cell viability, CELL TITER GLO assay (Promega), Namalwa cells; type: cell-based
Procedure: as §1, §2

[3] = Intrinsic clearance (liver microsomes, human), half-life; type: in vitro ADME
Eu-Myc Arf −/− cells = experiment: Cell viability, CELL TITER GLO assay (Promega), Eu-Myc Arf −/− cells; type: cell-based
Procedure: as §2

c-Myc [4] = experiment: Affinity-based pull down of c-Myc from nuclear lysate with compound-loaded beads, Western blot; type: binding
Procedure: Compound 19 beads (Figure SA) and compound 55 beads (FIG. 5B) were used. Results are expressed as a mean+/−SEM (n=3). Compound 55 beads were formed by a method analogous to the method shown in FIG. 4, where beads were linked to the —NH2 moiety of compound 55 by forming a urea moiety.
In order to explore the mechanism of action of compound 1, preliminary target identification experiments involving affinity-based pull downs were carried out. […] The structure of compound 19 allowed for linking compound 1 to beads (AFFI-GEL 102, Bio-Rad) (FIG. 4).
The linkage site to the bead via the nitrogen atom of the benzimidazolyl moiety was the original site of attachment to the small-molecule microarray and represented the orientation in the original screen.

Row | solubility ([1]; aqueous buffer, PBS, pH 7.4, 37° C., read-out: Solubility at 37° C., aqueous solubility (PBS, pH 7.4)) [µM] | solubility ([1]; fassgf or other biorelevant, simulated intestinal fluid, 37° C., read-out: Solubility at 37° C., aqueous solubility (simulated intestinal fluid)) [µM] | solubility ([1]; simulated gastric fluid, 37° C., read-out: Solubility at 37° C., aqueous solubility (simulated gastric fluid)) [µM] | IC50 (c-Myc [2]) [µM] | Half-life, intrinsic clearance (liver microsomes, human) [3] [min] | SMILES | effect on cell viability in 5 cancer cell lines (cancer cell lines; 3 days, NCIH1975, SNUC5, Namalwa, KLP1, Hela, CELL TITER GLO) | effect on cell viability in a variety of cancer cell lines (cancer cell lines; several cancer cell lines and CTD profiling of about 800 cancer cell lines, 72 hours) | IC50 (NCIH1975 cells) [µM] | IC50 (Namalwa cells) [µM] | IC50 (Eu-Myc Arf −/− cells) [µM] | c-Myc levels pulled down with free compound as soluble competitor (c-Myc [4]; beads linked via nitrogen atom of the benzimidazolyl moiety (compound 55 beads)) | c-Myc pulled down with free compound as soluble competitor (c-Myc [4]; compound 19 beads, nuclear lysate, 5 μM soluble competitor)
1 | < 1 | 80.2 (≈ 30.9 µg/mL) | 62.7 (≈ 24.2 µg/mL) | 0.67 | 22 | CC(C)N1C(=O)S/C(=C\c2ccc(Sc3nc4ccccc4[nH]3)o2)C1=O [Compound 1, (Z)-5-((5-((1H-benzo[d]imidazol-2-yl)thio)furan-2-yl)methylene)-3-isopropylthiazolidine-2,4-dione] | affected cell viability | demonstrated an effect in cell viability | 24.9 | 21.1 | 10.2 | decreased levels of c-Myc | less c-Myc pulled down
2 |  |  |  | 7.5 |  | O=C1NC(=O)/C(=C/c2ccc(Sc3nc4ccccc4[nH]3)o2)N1 [Compound 2, (Z)-5-((5-((1H-benzo[d]imidazol-2-yl)thio)furan-2-yl)methylene)imidazolidine-2,4-dione] |  |  | > 50 | > 50 | > 50 |  | 
3 |  |  |  | 5.72 |  | CC(C)N1C(=O)S/C(=C\c2ccc(Sc3nc4ccccc4s3)o2)C1=O [Compound 3, (Z)-5-((5-(benzo[d]thiazol-2-ylthio)furan-2-yl)methylene)-3-isopropylthiazolidine-2,4-dione] |  |  | > 50 | 31.1 | > 50 |  | 
4 |  |  |  | 0.79 |  | CC(C)N1C(=O)S/C(=C\c2ccc(Sc3nc4ccc(Cl)cc4[nH]3)o2)C1=O [Compound 4, (Z)-5-((5-((6-chloro-1H-benzo[d]imidazol-2-yl)thio)furan-2-yl)methylene)-3-isopropylthiazolidine-2,4-dione] |  |  | 17.3 | 12.4 | 11 |  | 
5 |  |  |  | 1.19 |  | COc1ccc2nc(Sc3ccc(/C=C4\SC(=O)N(C(C)C)C4=O)o3)[nH]c2c1 [Compound 5, (Z)-3-isopropyl-5-((5-((6-methoxy-1H-benzo[d]imidazol-2-yl)thio)furan-2-yl)methylene)thiazolidine-2,4-dione] |  |  | 34.5 | 42.1 | > 50 |  | 
6 |  |  |  | 9.39 |  | CC(C)N1C(=O)S/C(=C\c2ccc(Sc3nc4ccccc4o3)o2)C1=O [Compound 6, (Z)-5-((5-(benzo[d]oxazol-2-ylthio)furan-2-yl)methylene)-3-isopropylthiazolidine-2,4-dione] |  |  | > 50 | 37.2 | > 50 |  | 
7 |  |  |  | 0.83 |  | CC(C)N1C(=O)N/C(=C\c2ccc(Sc3nc4ccccc4[nH]3)o2)C1=O [Compound 8, (Z)-5-((5-((1H-benzo[d]imidazol-2-yl)thio)furan-2-yl)methylene)-3-isopropylimidazolidine-2,4-dione] |  |  | > 50 | > 50 | 11.8 |  | 
8 |  |  |  | 9.02 |  | O=C1C/C(=C\c2ccc(Sc3nc4ccccc4[nH]3)o2)C(=O)N1 [Compound 9, (E)-3-((5-((1H-benzo[d]imidazol-2-yl)thio)furan-2-yl)methylene)pyrrolidine-2,5-dione] |  |  | > 50 | > 50 | > 50 |  | 
9 |  |  |  | 5.6 |  | CC(C)N1C(=O)S/C(=C\c2ccc(Sc3nc4cccnc4[nH]3)o2)C1=O [Compound 10, (Z)-5-((5-((3H-imidazo[4,5-b]pyridin-2-yl)thio)furan-2-yl)methylene)-3-isopropylthiazolidine-2,4-dione] |  |  | > 50 | > 50 | 33.1 |  | 
10 |  |  |  | 1.05 |  | CC(C)N1C(=O)N/C(=C\c2ccc(Sc3nc4ccc(Cl)cc4[nH]3)o2)C1=O [Compound 22, (Z)-5-((5-((6-chloro-1H-benzo[d]imidazol-2-yl)thio)furan-2-yl)methylene)-3-isopropylimidazolidine-2,4-dione] |  |  | 45.3 | 16.5 | 6.09 |  | 
11 |  |  |  | 1.5 |  | Cc1cccc2nc(Sc3ccc(/C=C4\SC(=O)N(C(C)C)C4=O)o3)[nH]c12 [Compound 23, (Z)-3-isopropyl-5-((5-((7-methyl-1H-benzo[d]imidazol-2-yl)thio)furan-2-yl)methylene)thiazolidine-2,4-dione] |  |  | 28.2 | 33.9 | 10.5 |  | 
12 |  |  |  | 0.64 |  | CC(C)N1C(=O)S/C(=C\c2ccc(Sc3nc4ccc(C(F)(F)F)cc4[nH]3)o2)C1=O [Compound 24, (Z)-3-isopropyl-5-((5-((6-(trifluoromethyl)-1H-benzo[d]imidazol-2-yl)thio)furan-2-yl)methylene)thiazolidine-2,4-dione] |  |  | 12.5 | 7.94 | 11.2 |  | 
13 |  |  |  | 0.63 |  | CC(C)N1C(=O)S/C(=C\c2ccc(Sc3nc4cc(Cl)c(Cl)cc4[nH]3)o2)C1=O [Compound 25, (Z)-5-((5-((5,6-dichloro-1H-benzo[d]imidazol-2-yl)thio)furan-2-yl)methylene)-3-isopropylthiazolidine-2,4-dione] |  |  | 7.88 | 3.95 | 5.51 |  | 
14 |  |  |  | 33.6 |  | O=C(O)CN1C(=O)S/C(=C\c2ccc(Sc3nc4ccccc4[nH]3)o2)C1=O [Compound 26] |  |  | > 50 | > 50 | > 50 |  | 
15 |  |  |  | 2.28 |  | O=C(CCCC[C@H]1SC[C@H]2NC(=O)N[C@H]21)NCCCN1C(=O)S/C(=C\c2ccc(Sc3nc4ccccc4[nH]3)o2)C1=O [Compound 27, N-(3-((Z)-5-((5-((1H-benzo[d]imidazol-2-yl)thio)furan-2-yl)methylene)-2,4-dioxothiazolidin-3-yl)propyl)-5-((3aR,4R,6aS)-2-oxohexahydro-1H-thieno[3,4-d]imidazol-4-yl)pentanamide] |  |  | > 50 | 12.2 | 26 |  | 
16 |  |  |  | 0.98 |  | CC(C)N1C(=O)S/C(=C\c2ccc(Sc3nc4cccc(Cl)c4[nH]3)o2)C1=O [Compound 28, (Z)-5-(5-(((7-chloro-H-benzo[d]imidazol-2-yl)thio)furan-2-yl)methylene)-3-isopropylthiazolidine-2,4-dione] |  |  | 15.6 | 9.41 | 5.36 |  | 
17 |  |  |  | 0.64 |  | CC(C)c1ccc2nc(Sc3ccc(/C=C4\SC(=O)N(C(C)C)C4=O)o3)[nH]c2c1 [Compound 29, (Z)-3-isopropyl-5-((5-((6-isopropyl-1H-benzo[d]imidazol-2-yl)thio)furan-2-yl)methylene)thiazolidine-2,4-dione] |  |  | 19.9 | 15.3 | 13.1 |  | 
18 |  |  |  | 1.63 |  | COc1cccc2nc(Sc3ccc(/C=C4\SC(=O)N(C(C)C)C4=O)o3)[nH]c12 [Compound 30, (Z)-3-isopropyl-5-((5-((7-methoxy-1H-benzo[d]imidazol-2-yl)thio)furan-2-yl)methylene)thiazolidine-2,4-dione] |  |  | 56.3 | 72 | 11.1 |  | 
19 |  |  |  | > 40 |  | OCc1ccc(Sc2nc3ccccc3[nH]2)o1 [Compound 40, (5-((1H-benzo[d]imidazol-2-yl)thio)furan-2-yl)methanol] |  |  | > 50 | > 50 | 14.1 |  | 
